Results from US10980238B2, “Alkali metal salt for use in treatment of varroa destructor mite infestation of honey bees” (Universität Hohenheim, priority 2015, dated 2021).
Several values for one entry are separate records, joined by “and”; a condition that tells them apart may be missing. Identical values can stand only once. Like-named read-outs stand apart in the source and are kept apart here.

Tests used:
[1] = system: bees; conditions: for impact on bee viability: 4 mM, 7-day treatment period, data not shown; for Number of dead bees, Day 1 / Number of dead bees, Day 2 / Number of dead bees, Day 3 / Number of dead bees, Day 4 / Number of dead bees, Day 5 / Number of dead bees, Day 6 / Number of dead bees, Day 7: Li-salt 25 mM in sucrose syrup for 7 days; for Number of dead bees, Day 1 / Number of dead bees, Day 2 / Number of dead bees, Day 3 / Number of dead bees, Day 4 / Number of dead bees, Day 5 / Number of dead bees, Day 6 / Number of dead bees, Day 7 / Number of dead bees, Sum: 50 bees per cage, mean of three replicates; for Number of dead bees, Sum: Li-salt 25 mM in sucrose syrup, days 1-7
Description: (§1) The bees were fed with Li-salt/sucrose solutions for 7 days. Survival rate of bees and mites were monitored daily and dead bees or mites were removed.

[2] = system: Varroa destructor; conditions: for effect on mites during the 7-day treatment period: 4 mM, data not shown; for Number of dead mites, Day 1 / Number of dead mites, Day 2 / Number of dead mites, Day 3 / Number of dead mites, Day 4 / Number of dead mites, Day 5 / Number of dead mites, Day 6 / Number of dead mites, Day 7: Li-salt 25 mM in sucrose syrup for 7 days; for Number of dead mites, Day 1 / Number of dead mites, Day 2 / Number of dead mites, Day 3 / Number of dead mites, Day 4 / Number of dead mites, Day 5 / Number of dead mites, Day 6 / Number of dead mites, Day 7 / Number of dead mites, Sum: 25 mites per cage, mean of three replicates; for Number of dead mites, Sum: Li-salt 25 mM in sucrose syrup, days 1-7
Description: as §1

[3] = system: Varroa mites; test: Experiment 5 cage comparison of LiCl, NaCl and MgCl2: dead mites; type: in vivo, Varroa destructor; conditions: for Number of dead mites, Day 1 / Number of dead mites, Day 2 / Number of dead mites, Day 3 / Number of dead mites, Day 4 / Number of dead mites, Day 5 / Number of dead mites, Day 6 / Number of dead mites, Day 7 / Number of dead mites, Sum: 25 mites per cage, mean of 6 cages (LiCl) or 3 cages; for Number of dead mites, Sum: 25 mM in 70% sucrose, days 1-7
Method: (§2) In a further experiment LiCl, NaCl and MgCl2 were selected and their acaricidal activity compared. The experiment was performed in cages of 50 bees, to each of which 25 mites were added. Bees in control cages received sucrose only. LiCl, NaCl or MgCl2 were added to 70% sucrose solutions at a final concentration of 25 mM each and fed to the bees for seven days. Survival rate of bees and mites were monitored daily. Dead bees and mites were removed from the cages.
(§3) The numbers represent mean values derived from 6 cages. […] Numbers for NaCl, MgCl2 and control represent mean values derived from 3 separate cages.

[4] = system: bees; conditions: 50 bees per cage; for Number of dead bees, Day 1 / Number of dead bees, Day 2 / Number of dead bees, Day 3 / Number of dead bees, Day 4 / Number of dead bees, Day 5 / Number of dead bees, Day 6 / Number of dead bees, Day 7: 25 mM in 70% sucrose for seven days; for Number of dead bees, Day 1 / Number of dead bees, Day 2 / Number of dead bees, Day 3 / Number of dead bees, Day 4 / Number of dead bees, Day 5 / Number of dead bees, Day 6 / Number of dead bees, Day 7 / Number of dead bees, Sum: mean of 6 cages (LiCl) or 3 cages; for Number of dead bees, Sum: days 1-7
Method: as §2, §3

[5] = system: bees; test: Experiment 4 cage test of MgCl2 (50 bees, 20 mites): bee health; type: in vivo, Apis mellifera; conditions: 100 mM in sucrose syrup
Method: To test the activity of bivalent ions we dissolved MgCl2 in sucrose syrup at a final concentration of 100 mM. 2 cages of 50 bees to which 20 mites were added were fed with sucrose syrup only and syrup containing 100 mM MgCl2.

[6] = 25 mM in 70% sucrose for seven days

| Structure (SMILES) | impact on bee viability [1] | Number of dead bees, Day 1 [1] | Number of dead bees, Day 2 [1] | Number of dead bees, Day 3 [1] | Number of dead bees, Day 4 [1] | Number of dead bees, Day 5 [1] | Number of dead bees, Day 6 [1] | Number of dead bees, Day 7 [1] | Number of dead bees, Sum [1] | effect on mites during the 7-day treatment period [2] | Number of dead mites, Day 1 [2] | Number of dead mites, Day 2 [2] | Number of dead mites, Day 3 [2] | Number of dead mites, Day 4 [2] | Number of dead mites, Day 5 [2] | Number of dead mites, Day 6 [2] | Number of dead mites, Day 7 [2] | Number of dead mites, Sum [2] | Number of dead mites, Day 1 [3, 6] | Number of dead mites, Day 2 [3, 6] | other results |
| --- | --- | --- | --- | --- | --- | --- | --- | --- | --- | --- | --- | --- | --- | --- | --- | --- | --- | --- | --- | --- | --- |
| O=C([O-])[O-].[Li+].[Li+] [Li-carbonate, lithium carbonate] | without a significant negative impact on bee viability | 0.7 | 0.0 | 0.0 | 0.0 | 0.0 | 0.3 | 0.7 | 1.7 | killed all mites | 0.3 | 3.0 | 20.0 | 1.7 | 0.0 | 0.0 | 0.0 | 25.0 |  |  |  |
| O=C([O-])CC(O)(CC(=O)[O-])C(=O)[O-].[Li+].[Li+].[Li+] [Li-citrate, lithium citrate] | without a significant negative impact on bee viability | 0.0 | 0.0 | 0.3 | 0.0 | 0.7 | 1.7 | 0.3 | 3.0 | killed all mites | 0.3 | 10.0 | 14.7 | 0.0 | 0.0 | 0.0 | 0.0 | 25.0 |  |  |  |
| CC(O)C(=O)[O-].[Li+] (centres unmarked) [Li-lactate, lithium lactate] | without a significant negative impact on bee viability | 0.3 | 0.0 | 0.0 | 0.7 | 2.0 | 0.3 | 1.7 | 5.0 | killed all mites | 0.7 | 14.0 | 6.3 | 4.0 | 0.0 | 0.0 | 0.0 | 25.0 |  |  |  |
| O=S(=O)([O-])[O-].[Li+].[Li+] [Li-sulfate, lithium sulfate] | without a significant negative impact on bee viability | 0.0 | 0.0 | 0.0 | 1.0 | 3.7 | 1.7 | 0.0 | 6.3 | killed all mites | 0.7 | 18.0 | 5.7 | 0.7 | 0.0 | 0.0 | 0.0 | 25.0 |  |  |  |
| [Cl-].[Cl-].[Mg+2] [MgCl2] |  |  |  |  |  |  |  |  |  |  |  |  |  |  |  |  |  |  | 0.3 | 1.0 | Number of dead mites, Day 3 [3, 6]: 1.0; Number of dead mites, Day 4 [3, 6]: 3.7; Number of dead mites, Day 5 [3, 6]: 0.7; Number of dead mites, Day 6 [3, 6]: 0.0; Number of dead mites, Day 7 [3, 6]: 0.0; Number of dead mites, Sum [3]: 6.7; Number of dead bees, Day 1 [4]: 0.0; Number of dead bees, Day 2 [4]: 18.0; Number of dead bees, Day 3 [4]: 18.3; Number of dead bees, Day 4 [4]: 9.3; Number of dead bees, Day 5 [4]: 4.3; Number of dead bees, Day 6 [4]: 0.0; Number of dead bees, Day 7 [4]: 0.0; Number of dead bees, Sum ([4]; 25 mM in 70% sucrose): 50.0; time after which all bees were dead ([4]; 25 mM in 70% sucrose): 5 days; effect on bee health [5]: impair bee health substantially |
| [Cl-].[Na+] [NaCl] |  |  |  |  |  |  |  |  |  |  |  |  |  |  |  |  |  |  | 0.0 | 0.3 | acaricidal effect [3, 6]: fails to exhibit an acaricidal effect; Number of dead mites, Day 3 [3, 6]: 0.0; Number of dead mites, Day 4 [3, 6]: 0.0; Number of dead mites, Day 5 [3, 6]: 0.3; Number of dead mites, Day 6 [3, 6]: 0.7; Number of dead mites, Day 7 [3, 6]: 1.0; Number of dead mites, Sum [3]: 2 and 2.3; Number of dead bees, Day 1 [4]: 0.0; Number of dead bees, Day 2 [4]: 0.0; Number of dead bees, Day 3 [4]: 0.0; Number of dead bees, Day 4 [4]: 0.3; Number of dead bees, Day 5 [4]: 0.0; Number of dead bees, Day 6 [4]: 0.0; Number of dead bees, Day 7 [4]: 1.3; Number of dead bees, Sum ([4]; 25 mM in 70% sucrose): 2 and 1.7 |
